The values below come from ChEMBL document CHEMBL1201862, “PubChem BioAssay data set” (2004).

The structures appear in SMILES notation. Where a name gives a salt, the structure may show the parent alone. Active and inactive are the calls of the source.

The target of assay [1] is Aryl hydrocarbon receptor (Homo sapiens, UniProt P35869). Conditions: Potency.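 Note: confirmatory quantitative high-throughput screen measuring activation of the AhR signaling pathway.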
The target in assay [2] is T1, Mitochondrial peptide methionine sulfoxide reductase (Bos taurus, UniProt P54149). The assay is classed as functional.
T1 sequence (P54149 whole entry): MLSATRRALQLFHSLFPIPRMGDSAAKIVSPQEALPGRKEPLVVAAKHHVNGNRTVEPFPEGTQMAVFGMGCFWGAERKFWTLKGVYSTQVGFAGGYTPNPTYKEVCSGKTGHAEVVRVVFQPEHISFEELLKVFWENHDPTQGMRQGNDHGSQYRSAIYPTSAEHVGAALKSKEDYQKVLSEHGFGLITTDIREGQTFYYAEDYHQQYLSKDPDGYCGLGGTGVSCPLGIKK
The target of assay [3] is T1, Mitochondrial peptide methionine sulfoxide reductase. Nature of the assay: Absorbance-based biochemical high throughput dose response assay for activators of Methionine sulfoxide reductase A (MsrA). The assay is classed as functional.
Assay [4] in a line: activation of miR-122 Renilla sensor silencing – cell-based, Huh7 psiCHECK-miR122, Renilla luciferase, cherry-picked, dose response (AID 651956).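 Note: huh7 hepatoma cells stably carrying a psiCHECK-2 miR-122 sensor plasmid; renilla luciferase signal reporting endogenous miR-122 activity after 48 h compound exposure.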 The class given is functional.
A short description of assay [5]: TNFa-induced NF-kB reporter signal decrease – HEK293 LMP1 reporter cells, dry powder, set 2, selectivity assay for EBV LMP1 NF-kB inhibitor project, dose response (AID 624369). The class given is functional.
Assay [6] is described as follows: cytotoxicity in HEK293 background cells – cell-based, dry powder, set 2, counter-screen for EBV LMP1 inhibitor project, dose response (AID 624374). The assay is classed as functional. For orientation: Counterscreens check selectivity or assay interference.
Assay [7] is described as follows: viability loss in LCL cells – cell-based, plate reader, dry powder, set 2, cytotoxicity control, dose response (AID 624367). The assay is classed as functional.
Another assay concerns the target Paired box protein Pax-8 (Homo sapiens, UniProt Q06710). In words: PAX8 transcriptional activity inhibition in RMG-I – RMG-I cells, luciferase, cherry-pick, dose response (AID 687027).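 Note: luciferase reporter driven by Pax8 target thyroperoxidase promoter measured by SteadyGlo luminescence.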 The class given is functional, cell-based.
The nature of assay [8]: IGROV1 cell killing – plate reader, dry powder samples, PAX8 inhibitor project, dose response (AID 743043). The class given is functional, cell-based. The settings on record: IGROV-1.
In assay [9] the target is T2, Small ubiquitin-related modifier 1 (Homo sapiens, UniProt P63165). In words: SUMO1 protein interaction blockers, potency – biochemical, fluorescence polarization, uHTS hits, dose response (AID 624382). The assay is classed as functional. The settings on record: read-out: IC50_Mean. (Fluorescence polarisation rises when a labelled molecule tumbles more slowly, as on binding a larger partner.)
T2 sequence (P63165 whole entry): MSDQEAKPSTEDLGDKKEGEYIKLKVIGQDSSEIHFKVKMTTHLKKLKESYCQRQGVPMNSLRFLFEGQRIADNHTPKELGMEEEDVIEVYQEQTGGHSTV

Assay [10] deals with T2, Small ubiquitin-related modifier 1. Nature of the assay: SUMO1 protein-protein binding blockers, potency – biochemical, FRET, dose response (AID 624383). The assay is classed as functional. The settings on record: read-out: IC50_Mean.
Assay [11] has as its target Arf-GAP with SH3 domain, ANK repeat and PH domain-containing protein 1 (Homo sapiens, UniProt Q9ULH1). The class given is functional.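 Note: biochemical fluorescence polarization dose–response screen measuring inhibition of ASAP1; ASAP1 GAP domain stimulating GTP hydrolysis by truncated human ARF1.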
In assay [12] the target is Hepatocyte nuclear factor 4-alpha (Homo sapiens, UniProt P41235). The class given is functional, cell-based.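 Note: biochemical luminescence-based dose-response counterscreen measuring inhibition of HNF4 dimerization, run alongside a screen for blockers of ABHD5–perilipin-5 interaction; split luciferase complementation of HNF4 fusion proteins in cell lysate measuring dimerization.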
Hepatocyte nuclear factor 4-alpha, sequence (P41235 whole entry, the tested form may be a part): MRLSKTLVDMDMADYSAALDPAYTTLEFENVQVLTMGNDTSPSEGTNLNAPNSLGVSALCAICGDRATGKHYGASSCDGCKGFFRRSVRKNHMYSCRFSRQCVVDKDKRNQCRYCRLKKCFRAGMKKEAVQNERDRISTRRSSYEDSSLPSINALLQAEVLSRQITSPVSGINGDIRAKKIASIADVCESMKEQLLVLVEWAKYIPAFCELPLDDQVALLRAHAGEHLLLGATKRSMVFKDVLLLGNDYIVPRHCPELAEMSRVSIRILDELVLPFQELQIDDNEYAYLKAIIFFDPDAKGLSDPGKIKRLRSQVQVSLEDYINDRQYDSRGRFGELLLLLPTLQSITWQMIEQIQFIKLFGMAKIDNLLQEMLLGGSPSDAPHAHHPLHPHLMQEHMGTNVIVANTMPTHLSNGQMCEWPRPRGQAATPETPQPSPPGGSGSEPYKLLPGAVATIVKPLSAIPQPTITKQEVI

Arf-GAP with SH3 domain, ANK repeat and PH domain-containing protein 1, sequence (Q9ULH1 whole entry, the tested form may be a part): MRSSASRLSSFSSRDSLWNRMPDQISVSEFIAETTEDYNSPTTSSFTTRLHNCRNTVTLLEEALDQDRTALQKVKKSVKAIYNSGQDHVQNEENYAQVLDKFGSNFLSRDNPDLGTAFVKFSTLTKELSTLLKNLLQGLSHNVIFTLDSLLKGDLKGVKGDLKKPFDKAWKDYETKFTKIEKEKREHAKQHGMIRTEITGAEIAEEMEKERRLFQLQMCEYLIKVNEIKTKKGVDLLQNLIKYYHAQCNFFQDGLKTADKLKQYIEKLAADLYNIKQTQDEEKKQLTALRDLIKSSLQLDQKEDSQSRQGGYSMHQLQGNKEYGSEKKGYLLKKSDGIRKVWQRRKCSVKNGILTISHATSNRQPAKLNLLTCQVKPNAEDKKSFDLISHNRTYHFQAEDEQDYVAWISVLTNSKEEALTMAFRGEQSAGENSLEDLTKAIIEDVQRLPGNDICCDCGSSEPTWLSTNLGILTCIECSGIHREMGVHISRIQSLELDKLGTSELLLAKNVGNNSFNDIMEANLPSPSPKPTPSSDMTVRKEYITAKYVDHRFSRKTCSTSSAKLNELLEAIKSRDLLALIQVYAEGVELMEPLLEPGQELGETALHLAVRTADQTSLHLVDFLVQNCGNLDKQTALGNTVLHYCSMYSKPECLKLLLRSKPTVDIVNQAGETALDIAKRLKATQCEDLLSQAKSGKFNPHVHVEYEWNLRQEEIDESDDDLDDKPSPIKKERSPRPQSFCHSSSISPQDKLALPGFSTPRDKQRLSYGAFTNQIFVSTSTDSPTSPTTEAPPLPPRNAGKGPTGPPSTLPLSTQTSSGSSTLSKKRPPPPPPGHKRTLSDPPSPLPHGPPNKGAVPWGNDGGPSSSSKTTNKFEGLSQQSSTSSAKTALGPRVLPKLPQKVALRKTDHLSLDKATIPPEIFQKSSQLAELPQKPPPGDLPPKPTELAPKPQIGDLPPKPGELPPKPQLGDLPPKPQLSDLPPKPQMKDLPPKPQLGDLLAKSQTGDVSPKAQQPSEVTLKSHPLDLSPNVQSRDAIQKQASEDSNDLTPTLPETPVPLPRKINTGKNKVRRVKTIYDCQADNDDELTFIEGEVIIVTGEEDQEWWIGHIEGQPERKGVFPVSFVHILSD
Paired box protein Pax-8, sequence (Q06710 whole entry): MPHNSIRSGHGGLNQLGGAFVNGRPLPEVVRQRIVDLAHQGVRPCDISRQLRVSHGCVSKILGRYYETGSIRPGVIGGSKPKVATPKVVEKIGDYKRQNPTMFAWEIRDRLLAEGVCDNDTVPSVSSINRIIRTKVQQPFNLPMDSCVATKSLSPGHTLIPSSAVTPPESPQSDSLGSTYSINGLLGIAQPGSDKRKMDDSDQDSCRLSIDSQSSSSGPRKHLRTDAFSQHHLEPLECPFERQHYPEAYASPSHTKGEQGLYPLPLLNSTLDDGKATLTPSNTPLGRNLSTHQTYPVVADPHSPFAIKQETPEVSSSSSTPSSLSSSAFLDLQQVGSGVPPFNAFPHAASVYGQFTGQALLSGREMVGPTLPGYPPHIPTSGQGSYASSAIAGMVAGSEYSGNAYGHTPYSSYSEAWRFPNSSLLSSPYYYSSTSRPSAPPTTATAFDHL
Aryl hydrocarbon receptor, sequence (P35869 whole entry): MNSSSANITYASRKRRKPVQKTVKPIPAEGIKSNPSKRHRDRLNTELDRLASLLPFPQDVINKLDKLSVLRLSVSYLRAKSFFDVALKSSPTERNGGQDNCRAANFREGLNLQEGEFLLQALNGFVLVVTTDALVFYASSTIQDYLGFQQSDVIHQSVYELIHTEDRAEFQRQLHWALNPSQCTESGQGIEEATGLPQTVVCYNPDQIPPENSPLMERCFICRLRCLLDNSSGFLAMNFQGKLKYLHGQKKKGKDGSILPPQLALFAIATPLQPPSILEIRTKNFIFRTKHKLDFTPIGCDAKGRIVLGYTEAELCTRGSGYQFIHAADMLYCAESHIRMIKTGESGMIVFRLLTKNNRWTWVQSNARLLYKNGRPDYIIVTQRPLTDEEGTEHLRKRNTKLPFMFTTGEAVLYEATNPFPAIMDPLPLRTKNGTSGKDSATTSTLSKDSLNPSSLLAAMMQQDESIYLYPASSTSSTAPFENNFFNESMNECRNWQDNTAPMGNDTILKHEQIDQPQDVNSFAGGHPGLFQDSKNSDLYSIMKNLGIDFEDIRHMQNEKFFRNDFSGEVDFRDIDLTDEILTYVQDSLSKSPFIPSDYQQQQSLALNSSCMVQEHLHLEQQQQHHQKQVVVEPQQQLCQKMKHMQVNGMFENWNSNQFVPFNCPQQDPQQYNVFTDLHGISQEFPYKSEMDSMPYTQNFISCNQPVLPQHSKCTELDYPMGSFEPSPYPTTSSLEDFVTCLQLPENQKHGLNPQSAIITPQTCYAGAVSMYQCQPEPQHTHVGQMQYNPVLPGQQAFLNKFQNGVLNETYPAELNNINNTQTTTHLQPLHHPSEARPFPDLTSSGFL

On to `O=C(O)C1(C(=O)Nc2ccc(Cl)cc2Cl)CC1`, for which, in assay [1], the AC50 – broadly, the concentration at which the activity in the assay is half-maximal – is 50.1 µM (inconclusive). Turning to `Sc1nnc(C2CCCCC2)n1/N=C/c1ccccc1Br`, in assay [2], the IC50 was 155 µM (inactive). Consider `CO/N=C/c1ccc(N2CCCC2)c([N+](=O)[O-])c1`, for which the EC50 – broadly, the concentration that produces a half-maximal response – in assay [3] is > 104 µM (inactive). For `CNC(=O)C[C@@H]1CC[C@@H]2[C@@H](COc3ccc(NC(=O)Nc4ccc(F)c(F)c4)cc3C(=O)N2C)O1`, the AC50 in [4] is 4.95 µM (active). For `O=C(C[C@H]1CC[C@H]2[C@@H](COC[C@@H](O)CN2Cc2ccc3c(c2)OCO3)O1)Nc1ccc(-c2ccccc2)cc1`, the AbsAC35 in assay [5] was 57.32 µM; in assay [6], 148.97 µM; in [7], 77.89 µM. Also, the AC50 is 5.67 µM (active) at Paired box protein Pax-8 and 63.5 µM (active) in assay [8]. With `COc1cc(/C=N/NC(=O)c2ccc(O)cc2)ccc1OCC(=O)Nc1cccc([N+](=O)[O-])c1`, the results for the IC50 in assay [9], in [10] and in assay [11] were > 66.6 µM (inactive), 3.86 µM (active) and 25.3 µM (inactive), respectively. Take `CCOc1cc(N)c(Cl)cc1C(=O)NCC1CN(Cc2ccc(F)cc2)CCO1` (stereo not drawn) [MOSAPRIDE CITRATE]: the IC50 in assay [12] is 12.7 µM (inactive).
